Reference: patent publication US20210008541A1, “INSTRUMENT AND METHODS FOR AUTOMATED SAMPLE PREPARATION FOR MICROORGANISM IDENTIFICATION AND DIFFERENTIATION” (Accelerate Diagnostics, Inc., priority 2019, published 2021)

Experiments:
[1] = system: PRMI_IHMA_827374; assay: Disk diffusion inhibition of RAM ingredients on MHA plates; format: cell-based, Proteus mirabilis; conditions: 100 μL dispensed on MHA plate, lawned with PRMI_IHMA_827374
Procedure: (§1) Thus, each of the ingredients was checked for potential inhibition. The first portion of this study was meant to determine the source of inhibition and to formulate different variations of a respiratory artificial matrix (RAM) to use as a pellet former. To complete this objective, 100 μL of each of the ingredients was dispensed onto the center of four different Mueller Hinton Agar (MHA) plates. After letting the plates dry for ˜2 hours they were lawned with the following four bacteria: ECOL_ATCC_25922, SAUR_ATCC_29213, PROV_ATCC_6380 and PRMI_IHMA_827374. The following day the plates were measured for zones of inhibition. Following this, the pellet former recipe was optimized to exclude non-sterile components. […] Many fresh positive specimens of varying viscosities were then tested with an assay that incorporated this pellet former by adding 500 μL to the capsule with 1500 μL of BAL or mini-BAL specimen.

[2] = system: PROV_ATCC_6380; assay: as above; format: cell-based, Proteus vulgaris; conditions: 100 μL dispensed on MHA plate, lawned with PROV_ATCC_6380
Procedure: as §1

[3] = system: ECOL_ATCC_25922; assay: as above; format: cell-based, Escherichia coli; conditions: 100 μL dispensed on MHA plate, lawned with ECOL_ATCC_25922
Procedure: as §1

[4] = system: ECOL_ATCC_25922, SAUR_ATCC_29213, PROV_ATCC_6380 and PRMI_IHMA_827374; assay: Disk diffusion inhibition of RAM ingredients, all four lawned bacteria; format: cell-based
Procedure: Thus, each of the ingredients was checked for potential inhibition. […] To complete this objective, 100 μL of each of the ingredients was dispensed onto the center of four different Mueller Hinton Agar (MHA) plates. After letting the plates dry for ˜2 hours they were lawned with the following four bacteria: ECOL_ATCC_25922, SAUR_ATCC_29213, PROV_ATCC_6380 and PRMI_IHMA_827374. The following day the plates were measured for zones of inhibition.

[5] = system: SAUR_ATCC_29213; assay: Disk diffusion inhibition of RAM ingredients on MHA plates; format: cell-based, Staphylococcus aureus; conditions: 100 μL dispensed on MHA plate, lawned with SAUR_ATCC_29213
Procedure: as §1

O=C(O)CN(CCN(CC(=O)O)CC(=O)O)CCN(CC(=O)O)CC(=O)O [DTPA alone, DTPA]
Disk Diffusion Inhibition (zone of inhibition) [1]: 30 mm | Disk Diffusion Inhibition (zone of inhibition) [2]: 26 mm | Disk Diffusion Inhibition (zone of inhibition) [3]: 7 mm | Inhibition by disk diffusion method [4]: inhibited each of the organisms tested | Disk Diffusion Inhibition (zone of inhibition) [5]: 19 mm
